This is an account of results in US5792775A (priority 1996, dated 1998).

For assay [1], the system named is locomotor activity in mice. Put plainly: Locomotor (ambulatory) activity. The class given is in vivo, Swiss Webster mice. The settings on record: i.p., FIGS. 5-8. From the text: Ambulatory activity of Male Swiss Webster mice (Taconic Farms) were studied in 40 cm^3 clear acrylic chambers. The acrylic chambers were placed inside monitors (Omnitech Electronics, Columbus, Ohio) that were equipped with light sensitive detectors, spaced 2.5 cm apart along two perpendicular walls. Mounted on the opposing walls were infrared light sources that were directed at the detectors. One count of horizontal activity was registered each time the subject interrupted two successive beams. Repetitive interruptions of the same beam due to behaviors, such as head bobbing or grooming, were not counted. Mice were injected and immediately placed in the apparatus for 60 min. Injections were administered i.p. in volumes of 1 mL/ 100 g. Each dose was studied in eight mice, and mice were used only once.
Horizontal activity counts are shown for the first 30 min of the session in which the maximal stimulation of activity was obtained. Each dose-effect curve was analyzed using standard analysis of variance (ANOVA) and post-hoc testing determine significance of effects at individual doses.

The conditions of assay [2]: animal models, literature; cited from earlier work.
In assay [3] the test system is norepinephrine transporter (NET). Nature of the assay: biochemical. It counts as binding. Particulars: DAT vs. NET.
In assay [4] the target is norepinephrine transporter (NET) (Rattus norvegicus, UniProt Q63380). Nature of the assay: biochemical. The class given is binding. Particulars: for inhibition at 10 µM: read-out: NET (% I@10 μM).
The target of assay [5] is serotonin transporter (5HTT) (Rattus norvegicus, UniProt P31652). Nature of the assay: Serotonin transporter binding ([^3 H]citalopram), NOVASCREEN
The settings on record: for Ki: Table III, footnote d, read-out: 5HTT Ki value in nM (bracketed); for inhibition at 10 µM: read-out: 5HTT (% I@10 μM). From the text: (§1) Serotonin (5-HTT), norepinephrine transporter (NET) and muscarinic m1 and m2 receptor binding data were provided by NOVASCREEN.

In assay [6] the target is T1, dopamine transporter (DAT) (Rattus norvegicus, UniProt P23977).
T1 construct: brains removed to an ice-cooled dish for dissection of the caudate putamen; from tissue; host or cells: rat caudate putamen, washed membranes of male Sprague-Dawley rats (Taconic)
Put plainly: Displacement of [^3 H]WIN 35,428 binding (Dopamine Transporter Binding Assay). The settings on record: Table III; displacement of [^3 H]WIN 35,428, rat caudate putamen; % error in parentheses.

Assay [7] relates to dopamine uptake, rat caudate putamen. The class given is biochemical. Particulars: Table V; rat caudate putamen; read-out: [^3 H]DA Uptake Inhibition IC50.
A further assay addresses T2, muscarinic m2 receptors (Rattus norvegicus, UniProt P10980).
T2 sequence (P10980 1-466): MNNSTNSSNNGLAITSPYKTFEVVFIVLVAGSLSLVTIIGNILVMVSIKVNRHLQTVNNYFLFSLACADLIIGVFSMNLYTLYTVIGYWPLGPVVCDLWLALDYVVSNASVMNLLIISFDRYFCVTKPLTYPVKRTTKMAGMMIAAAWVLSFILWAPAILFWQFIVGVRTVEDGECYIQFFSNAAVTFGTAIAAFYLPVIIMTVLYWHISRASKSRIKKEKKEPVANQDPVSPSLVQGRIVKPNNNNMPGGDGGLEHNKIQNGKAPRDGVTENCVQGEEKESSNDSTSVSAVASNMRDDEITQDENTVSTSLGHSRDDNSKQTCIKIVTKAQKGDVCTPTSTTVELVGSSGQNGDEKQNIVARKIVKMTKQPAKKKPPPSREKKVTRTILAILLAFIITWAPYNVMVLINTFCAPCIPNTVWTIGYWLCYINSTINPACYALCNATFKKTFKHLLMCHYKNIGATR
Nature of the assay: Muscarinic m2 receptor binding ([^3 H]AFDX 384), NOVASCREEN
Particulars: Table III.
Excerpt: as §1

For another assay, the target named is T3, muscarinic m1 receptors (Rattus norvegicus, UniProt P08482).
T3 sequence (P08482 1-460): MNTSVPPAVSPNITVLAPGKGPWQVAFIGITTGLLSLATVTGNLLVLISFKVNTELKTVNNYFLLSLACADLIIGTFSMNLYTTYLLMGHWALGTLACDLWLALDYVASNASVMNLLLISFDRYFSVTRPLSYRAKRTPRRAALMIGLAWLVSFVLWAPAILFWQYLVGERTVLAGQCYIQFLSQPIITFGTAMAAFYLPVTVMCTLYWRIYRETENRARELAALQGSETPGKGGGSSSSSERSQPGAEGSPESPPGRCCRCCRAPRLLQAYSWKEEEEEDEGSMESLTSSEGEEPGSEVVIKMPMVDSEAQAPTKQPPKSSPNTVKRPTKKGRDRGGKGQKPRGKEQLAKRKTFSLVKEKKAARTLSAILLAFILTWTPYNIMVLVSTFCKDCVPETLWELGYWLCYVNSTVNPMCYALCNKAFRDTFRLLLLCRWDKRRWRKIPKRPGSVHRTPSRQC
Put plainly: biochemical. It counts as binding. Particulars: for Ki: Table III, read-out: m1, Ki.

For assay [8], the target named is T1, dopamine transporter (DAT). Particulars: read-out: DAT Ki, nM (% error); cited from earlier work.

Where two headings read alike, the source gives them in different places.

norepinephrine transporter (NET) (Rattus norvegicus, UniProt Q63380), sequence (Q63380 1-617): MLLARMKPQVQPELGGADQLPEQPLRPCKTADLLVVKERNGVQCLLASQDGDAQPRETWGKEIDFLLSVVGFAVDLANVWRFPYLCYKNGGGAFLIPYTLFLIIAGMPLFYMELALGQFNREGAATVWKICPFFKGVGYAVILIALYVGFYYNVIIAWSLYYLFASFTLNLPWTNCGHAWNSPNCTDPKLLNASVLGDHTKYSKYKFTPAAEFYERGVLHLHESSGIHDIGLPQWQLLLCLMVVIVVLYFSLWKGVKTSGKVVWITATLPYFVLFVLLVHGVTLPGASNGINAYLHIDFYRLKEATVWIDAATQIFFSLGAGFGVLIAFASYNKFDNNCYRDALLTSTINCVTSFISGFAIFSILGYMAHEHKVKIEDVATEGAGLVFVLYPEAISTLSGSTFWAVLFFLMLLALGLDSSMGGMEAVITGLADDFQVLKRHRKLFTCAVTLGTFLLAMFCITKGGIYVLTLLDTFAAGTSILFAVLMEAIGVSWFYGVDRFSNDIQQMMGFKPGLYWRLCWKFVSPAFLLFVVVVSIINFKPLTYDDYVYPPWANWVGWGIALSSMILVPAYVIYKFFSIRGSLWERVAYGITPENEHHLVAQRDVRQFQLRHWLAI
T1 sequence (P23977 whole entry): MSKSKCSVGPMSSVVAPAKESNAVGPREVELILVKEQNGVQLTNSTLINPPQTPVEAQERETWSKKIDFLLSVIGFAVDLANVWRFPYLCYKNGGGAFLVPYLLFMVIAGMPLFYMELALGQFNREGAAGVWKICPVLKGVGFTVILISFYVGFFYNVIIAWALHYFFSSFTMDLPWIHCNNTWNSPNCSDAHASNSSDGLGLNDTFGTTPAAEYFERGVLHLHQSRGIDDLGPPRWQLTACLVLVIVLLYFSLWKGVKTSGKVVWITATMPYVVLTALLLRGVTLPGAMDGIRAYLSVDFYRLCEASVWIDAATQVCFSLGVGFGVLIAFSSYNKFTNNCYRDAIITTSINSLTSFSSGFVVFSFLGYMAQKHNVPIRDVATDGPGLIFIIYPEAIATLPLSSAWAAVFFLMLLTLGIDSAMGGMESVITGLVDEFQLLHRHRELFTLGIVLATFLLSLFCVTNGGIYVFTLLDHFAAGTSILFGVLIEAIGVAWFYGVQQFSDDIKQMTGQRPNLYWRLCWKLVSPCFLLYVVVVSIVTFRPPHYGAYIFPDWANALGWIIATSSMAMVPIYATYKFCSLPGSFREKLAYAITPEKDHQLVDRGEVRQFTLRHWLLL
serotonin transporter (5HTT), sequence (P31652 whole entry): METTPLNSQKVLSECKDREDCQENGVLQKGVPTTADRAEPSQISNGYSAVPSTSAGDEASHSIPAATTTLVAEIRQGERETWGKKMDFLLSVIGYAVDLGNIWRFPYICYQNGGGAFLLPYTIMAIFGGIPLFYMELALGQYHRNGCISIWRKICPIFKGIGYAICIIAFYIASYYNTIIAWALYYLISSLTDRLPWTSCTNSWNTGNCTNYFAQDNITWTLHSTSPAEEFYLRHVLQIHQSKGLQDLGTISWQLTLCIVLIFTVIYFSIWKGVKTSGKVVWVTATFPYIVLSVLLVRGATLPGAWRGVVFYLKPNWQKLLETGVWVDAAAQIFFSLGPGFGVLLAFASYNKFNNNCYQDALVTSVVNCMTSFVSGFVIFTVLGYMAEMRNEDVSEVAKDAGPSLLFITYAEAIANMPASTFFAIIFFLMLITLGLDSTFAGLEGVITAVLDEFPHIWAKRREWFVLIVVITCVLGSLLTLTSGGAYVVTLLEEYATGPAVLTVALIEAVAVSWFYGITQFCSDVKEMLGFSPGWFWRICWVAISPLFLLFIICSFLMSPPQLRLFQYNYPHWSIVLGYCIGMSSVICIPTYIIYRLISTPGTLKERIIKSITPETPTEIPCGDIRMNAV

For `CN1[C@@H]2CC[C@H]1C[C@@H](OC(c1ccccc1)c1ccccc1)C2` [Compound 2, 3α-(diphenylmethoxy)-1αH,5αH-tropane], in [1], the “stimulation of locomotor activity” value is on record as “do not produce locomotor stimulant activity”. Moreover, the CNS stimulatory activity entry in [2] is “exhibits CNS stimulatory activity in animal models”.

Take `CN1[C@@H]2CC[C@H]1C[C@@H](OC(c1ccc(F)cc1)c1ccc(F)cc1)C2` [Compound 7c, 4',4"-difluoro-3α-(diphenylmethoxy)tropane]: the “potency at dopamine transporter as compared to norepinephrine transporter” value in assay [3] is on record as over 700 fold. Also, the Ki is over 8500 nM in assay [4]; over 8500 nM in assay [4] (read-out: NET, Ki, Table IV); over 2440 nM in [5]. The inhibition at 10 µM came out at 30% in assay [4] and 62% in assay [5].

As for `CN1[C@@H]2CC[C@H]1C[C@@H](OC(c1ccccc1)c1ccc(Cl)c(Cl)c1)C2` (some centres unmarked) [Compound 7k], the Ki is 22.1 nM in [6]; 141 nM at muscarinic m2 receptors; over 4870 nM in assay [4] (read-out: NET Ki value in nM (bracketed), Table III, footnote d); 12.5 nM on muscarinic m1 receptors; over 1790 nM in assay [5]. In addition, the IC50 in [7] came to 47 nM. Moreover, the inhibition at 10 µM turned out to be 56.5% in assay [4] and 66.2% in assay [5].

For the compound `CN1[C@@H]2CC[C@H]1C[C@@H](OC(c1ccc(F)cc1)c1ccc(Cl)c(Cl)c1)C2` (some centres unmarked) [Compound 7l], the Ki in [6] was 18.9 nM; on muscarinic m2 receptors, 369 nM; in assay [4] it was over 9000 nM; at muscarinic m1 receptors, 33 nM; in assay [5], over 691 nM. Further, the IC50 in [7] is 24 nM. In addition, the inhibition at 10 µM is 57.8% in assay [4] and 80.3% in assay [5].

In the case of `CN1[C@@H]2CC[C@H]1C[C@@H](OC(c1ccccc1)c1ccc(C(F)(F)F)cc1)C2` (some centres unmarked) [Compound 7m], the Ki in assay [6] amounted to 635 nM; at muscarinic m2 receptors, 1510 nM; at muscarinic m1 receptors, 5.4 nM. The IC50 in assay [7] is 2160 nM. Further, the inhibition at 10 µM in assay [4] was 34.6%; in assay [5], 49.1%. Moreover, the “selectivity for m1 over m2 sites” value at muscarinic m1 receptors (m1 vs. m2) is on record as about 300 fold.

As to `Cc1ccc(C(O[C@H]2C[C@H]3CC[C@@H](C2)N3C)c2ccc(C)cc2)cc1` [Compound 7o], the results for the Ki (in assay [6]; on muscarinic m2 receptors; on muscarinic m1 receptors) were 420 nM, 716 nM and 47.2 nM, respectively. Also, the IC50 in assay [7] is 2540 nM. The values for the inhibition at 10 µM in assay [4] and in assay [5] were 35.1% and 35.5%, respectively.

`Cc1ccc(C(O[C@H]2C[C@H]3CC[C@@H](C2)N3C)c2ccccc2)cc1` (some centres unmarked) [Compound 7p]: the Ki in assay [6] is 187 nM; at muscarinic m2 receptors, 37.5 nM; on muscarinic m1 receptors, 2.7 nM. In addition, the IC50 in [7] was 512 nM. Moreover, the inhibition at 10 µM in assay [4] was found to be 31.8%; in assay [5], 35.4%.

Take `CCc1ccc(C(O[C@H]2C[C@H]3CC[C@@H](C2)N3C)c2ccccc2)cc1` (some centres unmarked) [Compound 7q]: the Ki in assay [6] was determined as 520 nM; at muscarinic m2 receptors, 703 nM; at muscarinic m1 receptors, 12.6 nM. Also, in assay [7], the IC50 worked out at 984 nM. Also, the results for the inhibition at 10 µM in assay [4] and in assay [5] were 32.7% and 42.7%, respectively.

For the compound `CN1[C@@H]2CC[C@H]1C[C@@H](OC(c1ccccc1)c1ccc(O)cc1)C2` (stereo partly drawn) [Compound 7r, 3α-4'-Hydroxy-(diphenylmethoxy)tropane], the Ki in assay [6] came out at 297 nM; at muscarinic m2 receptors, 17.7 nM; at muscarinic m1 receptors, 2.1 nM. Also, the IC50 in [7] worked out at 677 nM. The inhibition at 10 µM stood at 27.3% in assay [4] and 23.3% in assay [5].

Regarding `CN1[C@@H]2CC[C@H]1C[C@H](OC(c1ccccc1)c1ccc(Cl)cc1)C2` (stereo partly drawn) [Compound 10, 3β-4'-Chloro-(diphenylmethoxy)tropane], in assay [7], the IC50 amounted to 3520 nM. Moreover, the results for the inhibition at 10 µM in assay [4] and in assay [5] were 27.9% and 37.2%, respectively. For the same compound, the Ki in assay [8] is 854 nM.
